Experimental data taken from US20140135270A1, “MACROCYCLIC COMPOUNDS FOR INHIBITION OF INHIBITORS OF APOPTOSIS” (Ensemble Therapeutics Corp., priority 2012, published 2014).
pIC50: −log10 of the molar value.

Columns and labels:
[1] = target: T1, His-BIR2-3 (125-356, C202A/C213G, XIAP) (Homo sapiens, UniProt P98170, C202A/C213G); assay: XIAP-BIR2-3 Dimeric SMAC Peptide Homogeneous Time Resolved Fluorescence (HTRF) Assay; format: binding; conditions: fluorescein labeled dimeric SMAC peptide
T1 construct: additions of His-BIR2-3 (125-356, C202A/C213G, XIAP), fluorescein labeled dimeric SMAC peptide
T1 sequence (P98170 125-356 C202A/C213G): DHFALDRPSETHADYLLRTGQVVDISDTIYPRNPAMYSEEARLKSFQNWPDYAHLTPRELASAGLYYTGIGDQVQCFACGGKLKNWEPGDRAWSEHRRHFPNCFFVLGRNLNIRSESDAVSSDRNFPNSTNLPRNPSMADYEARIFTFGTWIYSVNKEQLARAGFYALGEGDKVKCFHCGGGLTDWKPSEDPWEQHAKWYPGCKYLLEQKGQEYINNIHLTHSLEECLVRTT

His-BIR3 (241-356, XIAP) = target: T2, His-BIR3 (241-356, XIAP) (Homo sapiens, UniProt P98170); assay: XIAP-BIR3/SMAC Homogeneous Time Resolved Fluorescence (HTRF) Assay; format: binding; conditions: fluorescein labeled SMAC peptide
T2 construct: additions of His-BIR3 (241-356, XIAP), fluorescein labeled SMAC peptide
T2 sequence (P98170 241-356): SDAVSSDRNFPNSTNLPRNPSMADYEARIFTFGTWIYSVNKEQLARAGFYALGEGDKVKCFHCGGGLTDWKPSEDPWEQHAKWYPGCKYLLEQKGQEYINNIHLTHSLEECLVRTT

Compound | pIC50 [1] | pIC50 (His-BIR3 (241-356, XIAP))
CN[C@@H](C)C(=O)N[C@H](C(=O)N1C[C@@H]2C[C@H]1C(=O)N[C@@H](Cc1ccc3ccccc3c1)C(=O)N[C@H](C(=O)O)Cc1ccc(cc1)CCCCO[C@H]1C[C@@H](C(=O)N[C@@H](Cc3ccc4ccccc4c3)C(=O)N[C@H](C(=O)NS(=O)(=O)C3CC3)Cc3ccc(cc3)OCc3cn2nn3)N(C(=O)[C@@H](NC(=O)[C@H](C)NC)C(C)(C)C)C1)C(C)(C)C [Example 127] | 8.15 | 8.12
CC[C@H](NC(=O)[C@H](C)NC)C(=O)N1C[C@@H]2C[C@H]1C(=O)N1Cc3ccccc3C[C@H]1C(=O)N[C@H](C(=O)O)Cc1ccc(cc1)C(=O)N[C@H]1C[C@@H](C(=O)N[C@@H](Cc3ccc4ccccc4c3)C(=O)N[C@H](C(=O)O)Cc3ccc(cc3)OC/C=C/CO2)N(C(=O)[C@@H](NC(=O)[C@H](C)NC)C(C)(C)C)C1 [Example 50] | 7.25 | 7.10
CN[C@@H](C)C(=O)NC(C(=O)N1C[C@H]2C/C=C/COc3ccc(cc3)C[C@@H](c3n[nH]c(=O)o3)NC(=O)C(Cc3ccc4ccccc4c3)NC(=O)[C@@H]3C[C@@H](CN3C(=O)[C@@H](NC(=O)[C@H](C)NC)C(C)(C)C)n3cc(nn3)COc3ccc(cc3)C[C@@H](C(=O)O)NC(=O)[C@H](Cc3ccc4ccccc4c3)NC(=O)[C@@H]1C2)C(C)(C)C (stereo partly drawn) [Example 91] | 9.40 | 8.70
CN[C@@H](C)C(=O)N[C@H](C(=O)N1CC[C@H]2OC/C=C/CC[C@@H](C(=O)O)NC(=O)[C@H](Cc3ccc4ccccc4c3)NC(=O)[C@@H]3[C@@H](CCN3C(=O)[C@@H](NC(=O)[C@H](C)NC)C(C)(C)C)OCc3cn(nn3)[C@H](C(=O)O)CCNC(=O)[C@H](Cc3ccc4ccccc4c3)NC(=O)[C@H]21)C(C)(C)C [Example 15] | 8.39 | 7.41
CN[C@@H](C)C(=O)N[C@H](C(=O)N1C[C@@H]2C[C@H]1C(=O)N[C@@H](Cc1ccc3ccccc3c1)C(=O)N[C@H](C(=O)O)Cc1ccc(cc1)OCCCCO[C@H]1C[C@@H](C(=O)N[C@@H](Cc3ccc4ccccc4c3)C(=O)N[C@H](C(=O)NS(=O)(=O)C3CC3)Cc3ccc(cc3)OCc3cn2nn3)N(C(=O)[C@@H](NC(=O)[C@H](C)NC)C(C)(C)C)C1)C(C)(C)C [Example 120] | 8.10 | 7.38
CN[C@@H](C)C(=O)N[C@H](C(=O)N[C@H]1C/C=C/CC[C@@H](C(=O)O)NC(=O)[C@H](Cc2ccccc2)NC(=O)[C@@H]2CN(CCNC(=O)CC[C@@H](C(=O)O)NC(=O)[C@H](Cc3ccccc3)NC1=O)CCN2C(=O)[C@@H](NC(=O)[C@H](C)NC)C(C)C)C(C)C [Example 81] | 8.96 | 7.59
CN[C@@H](C)C(=O)N[C@H](C(=O)N[C@H]1C/C=C/CC[C@@H](C(=O)O)NC(=O)[C@H](Cc2ccc3ccccc3c2)NC(=O)[C@@H]2CN(CCN2C(=O)[C@@H](NC(=O)[C@H](C)NC)C(C)(C)C)C(=O)CNC(=O)CC[C@@H](C(=O)O)NC(=O)[C@H](Cc2ccc3ccccc3c2)NC1=O)C(C)(C)C [Example 77] | 7.92 | 6.69
CN[C@@H](C)C(=O)N[C@H](C(=O)N1C[C@@H]2C[C@H]1C(=O)N[C@@H](Cc1ccc3ccccc3c1)C(=O)N[C@H](C(=O)O)CCC(=O)N[C@H]1C[C@@H](C(=O)N[C@@H](Cc3ccc4ccccc4c3)C(=O)N[C@H](C(=O)O)Cc3ccc(cc3)OC/C=C/CO2)N(C(=O)[C@@H](NC(=O)[C@H](C)NC)C(C)(C)C)C1)[C@H](C)O [Example 57] | 7.92 | 6.70

The next lines start with the values.

pIC50 [1] | pIC50 (His-BIR3 (241-356, XIAP)) | Compound
9.30 | 8.77 | CN[C@@H](C)C(=O)N[C@H](C(=O)N1C[C@H]2CCCCOc3ccc(cc3)C[C@@H](c3nnn[nH]3)NC(=O)[C@H](Cc3ccc4ccccc4c3)NC(=O)[C@@H]3C[C@@H](CN3C(=O)[C@@H](NC(=O)[C@H](C)NC)C(C)(C)C)n3cc(nn3)COc3ccc(cc3)C[C@@H](C(=O)O)NC(=O)[C@H](Cc3ccc4ccccc4c3)NC(=O)[C@@H]1C2)C(C)(C)C [Example 90]
8.70 | 8.03 | CN[C@@H](C)C(=O)N[C@@H](Cc1ccccc1)C(=O)N1C[C@@H]2C[C@H]1C(=O)N[C@@H](Cc1ccc3ccccc3c1)C(=O)N[C@H](C(=O)O)Cc1ccc(cc1)C(=O)N[C@H]1C[C@@H](C(=O)N[C@@H](Cc3ccc4ccccc4c3)C(=O)N[C@H](C(=O)O)Cc3ccc(cc3)OC/C=C/CO2)N(C(=O)[C@@H](NC(=O)[C@H](C)NC)C(C)(C)C)C1 [Example 70]
8.59 | 7.75 | CN[C@@H](C)C(=O)N[C@H](C(=O)N1C[C@@H]2C[C@H]1C(=O)N[C@@H](Cc1ccc3ccccc3c1)C(=O)N[C@H](C(=O)O)Cc1ccc(cc1)OC/C=C/CO[C@H]1C[C@@H](C(=O)N[C@@H](Cc3ccc(-c4ccccc4)cc3)C(=O)N[C@H](C(=O)O)Cc3ccc(cc3)C(=O)N2)N(C(=O)[C@@H](NC(=O)[C@H](C)NC)C(C)(C)C)C1)C(C)(C)C [Example 48]
8.74 | 8.74 | CN[C@@H](C)C(=O)N[C@H](C(=O)N1CC[C@H]2OCc3cn(nn3)CC[C@@H](C(=O)OC)NC(=O)[C@H](Cc3ccc4ccccc4c3)NC(=O)[C@@H]3[C@@H](CCN3C(=O)[C@@H](NC(=O)[C@H](C)NC)C(C)(C)C)OC/C=C/COc3ccc(cc3)C[C@@H](C(=O)O)NC(=O)[C@H](Cc3ccc4ccccc4c3)NC(=O)[C@H]21)C(C)(C)C [Example 17]
8.43 | 8.62 | CN[C@@H](C)C(=O)N[C@H](C(=O)N1C[C@@H]2C[C@H]1C(=O)NC(Cc1ccc3ccccc3c1)C(=O)N[C@H](C(=O)O)Cc1ccc(cc1)OCCCC[C@H]1C[C@@H](C(=O)N[C@@H](Cc3ccc4ccccc4c3)C(=O)N[C@H](c3nnn[nH]3)Cc3ccc(cc3)OCc3cn2nn3)N(C(=O)[C@@H](NC(=O)[C@H](C)NC)C(C)(C)C)C1)C(C)(C)C (stereo partly drawn) [Example 99]
7.46 | 8.00 | CN[C@@H](C)C(=O)N[C@H](C(=O)N1C[C@@H]2C[C@H]1C(=O)N[C@@H](Cc1ccc3ccccc3c1)C(=O)N[C@H](C(=O)O)Cc1ccc(cc1)OC/C=C/C[C@H]1C[C@@H](C(=O)N[C@@H](Cc3ccc4ccccc4c3)C(=O)N[C@H](C(=O)NS(=O)(=O)C3CC3)Cc3ccc(cc3)OCc3cnnn32)N(C(=O)[C@@H](NC(=O)[C@H](C)NC)C(C)(C)C)C1)C(C)(C)C [Example 102]
8.06 | 6.98 | CN[C@@H](C)C(=O)N[C@H](C(=O)N1C[C@@H]2C[C@H]1C(=O)N[C@@H](Cc1ccc3ccccc3c1)C(=O)N[C@H](C(=O)O)Cc1ccc(cc1)OC/C=C/CO[C@H]1C[C@@H](C(=O)N[C@@H](C(c3ccccc3)c3ccccc3)C(=O)N[C@H](C(=O)NS(=O)(=O)C3CC3)Cc3ccc(cc3)OCc3cn2nn3)N(C(=O)[C@@H](NC(=O)[C@H](C)NC)C(C)(C)C)C1)C(C)(C)C [Example 104]
8.92 | 8.92 | CN[C@@H](C)C(=O)N[C@H](C(=O)N1CC[C@H]2OCc3cn(nn3)-c3ccc(cc3)C[C@@H](C(=O)O)NC(=O)[C@H](Cc3ccc4ccccc4c3)NC(=O)[C@@H]3C[C@@H](CN3C(=O)[C@@H](NC(=O)[C@H](C)NC)C(C)(C)C)OC/C=C/COc3ccc(cc3)C[C@@H](C(=O)O)NC(=O)[C@H](Cc3ccc4ccccc4c3)NC(=O)[C@H]21)C(C)(C)C [Example 12]
8.49 | 7.79 | CN[C@@H](C)C(=O)N[C@@H](CC1CCCCC1)C(=O)N1C[C@@H]2C[C@H]1C(=O)N[C@@H](Cc1ccc3ccccc3c1)C(=O)N[C@H](C(=O)O)Cc1ccc(cc1)C(=O)N[C@H]1C[C@@H](C(=O)N[C@@H](Cc3ccc4ccccc4c3)C(=O)N[C@H](C(=O)O)Cc3ccc(cc3)OC/C=C/CO2)N(C(=O)[C@@H](NC(=O)[C@H](C)NC)C(C)(C)C)C1 [Example 69]
8.77 | 7.75 | CN[C@@H](C)C(=O)N[C@H](C(=O)N1C[C@@H]2C[C@H]1C(=O)N[C@@H](Cc1ccc3ccccc3c1)C(=O)N[C@H](C(=O)O)Cc1ccc(cc1)OC/C=C/CO[C@H]1C[C@@H](C(=O)N[C@@H](Cc3ccc(-c4ccccc4)cc3)C(=O)N[C@H](C(=O)NS(=O)(=O)C3CC3)Cc3ccc(cc3)OCc3cn2nn3)N(C(=O)[C@@H](NC(=O)[C@H](C)NC)C(C)(C)C)C1)C(C)(C)C [Example 106]
8.23 | 7.24 | CN[C@@H](C)C(=O)N[C@H](C(=O)N1C[C@@H]2C[C@H]1C(=O)N[C@@H](Cc1ccc3ccccc3c1)C(=O)N[C@H](C(=O)O)CCC(=O)N[C@H]1C[C@@H](C(=O)N[C@@H](Cc3ccc4ccccc4c3)C(=O)N[C@H](C(=O)O)Cc3ccc(cc3)OC/C=C/CO2)N(C(=O)[C@@H](NC(=O)[C@H](C)NC)C(C)(C)C)C1)C(C)C [Example 56]
8.32 | 7.21 | CN[C@@H](C)C(=O)N[C@H](C(=O)N1C[C@@H]2C[C@H]1C(=O)N[C@@H](Cc1ccc3ccccc3c1)C(=O)N[C@H](C(=O)O)Cc1ccc(cc1)OC/C=C/CO[C@H]1C[C@@H](C(=O)N[C@@H](c3ccccc3)C(=O)N[C@H](C(=O)O)Cc3ccc(cc3)C(=O)N2)N(C(=O)[C@@H](NC(=O)[C@H](C)NC)C(C)(C)C)C1)C(C)(C)C [Example 51]
8.89 | 8.54 | CN[C@@H](C)C(=O)N[C@H](C(=O)N1C[C@@H]2C[C@H]1C(=O)N[C@@H](Cc1ccc3ccccc3c1)C(=O)NC(C(=O)O)Cc1ccc(cc1)OC/C=C/CO[C@H]1C[C@@H](C(=O)N[C@@H](Cc3ccc4ccccc4c3)C(=O)N[C@H](C(=O)O)Cc3ccc(cc3)O2)N(C(=O)[C@@H](NC(=O)[C@H](C)NC)C(C)(C)C)C1)C(C)(C)C (stereo partly drawn) [Example 84]
